Like-named read-outs stand apart in the source and are kept apart here.
Experiments:
[1] = including conditioned place preference with cocaine and alcohol reinstatement; cited from earlier work
circadian rhythms [2] = settings: in vivo locomotor activity of a variety of species; cited from earlier work
circadian rhythms [3] = settings: cellular reporter assays; cited from earlier work
[4] = ob/ob and diet-induced obese mouse, daily administration; cited from earlier work
[5] = target: T1, human recombinant GST cleaved CSNK1D (Homo sapiens, UniProt P48730); assay: Purified Enzyme Assay (ADP-Glo CSNK1D Kinase Assay); assay type: biochemical; settings: 2 nM CSNK1D; peptide substrate 150 μM; ATP 20 μM; 45 minutes at room temperature
T1 construct: GST (cleaved yes); purchased University of Dundee clone DU 19064
Summary of the method: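 GST-cleaved human recombinant CSNK1D phosphorylates peptide PLSRTL-pS-VASLPGL with ATP; compounds added in dose-response, 45 min at room temperature. ADP formed measured by ADP-Glo luminescence and converted to percent activity.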

human CSNK1D = target: T2, human CSNK1D (Homo sapiens, UniProt P48730); assay: Whole Cell nBRET CSNK1D Binding Assay; settings: living CHO cells stably expressing human CSNK1D tagged with nanoluciferase; NanoBret tracer 130 nM; 2 hours at 37 C
T2 construct: expressed in transfected cells
T2 sequence (P48730 whole entry): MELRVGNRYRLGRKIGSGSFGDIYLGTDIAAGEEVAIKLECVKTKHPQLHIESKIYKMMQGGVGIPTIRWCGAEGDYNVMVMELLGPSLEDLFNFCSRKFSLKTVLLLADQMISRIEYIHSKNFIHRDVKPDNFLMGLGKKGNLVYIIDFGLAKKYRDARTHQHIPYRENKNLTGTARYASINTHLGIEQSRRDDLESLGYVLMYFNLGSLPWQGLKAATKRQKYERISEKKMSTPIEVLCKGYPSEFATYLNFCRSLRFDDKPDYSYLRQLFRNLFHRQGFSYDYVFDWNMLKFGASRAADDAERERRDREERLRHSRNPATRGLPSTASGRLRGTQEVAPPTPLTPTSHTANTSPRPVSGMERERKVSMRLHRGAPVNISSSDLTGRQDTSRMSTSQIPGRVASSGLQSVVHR

T1 sequence (P48730 whole entry): as above

Structure (SMILES): Nc1nccc(-c2c(-c3ccc(F)cc3)ncn2C2CCCCC2)n1 [PF-670462]
- efficacy in addiction/substance abuse models [1]: shown efficacy
- effect on circadian rhythms (circadian rhythms [2]): significantly lengthened circadian rhythms
- effect on circadian rhythms (circadian rhythms [3]): significantly lengthened circadian rhythms

Structure (SMILES): Nc1nccc(-c2c(-c3ccc(F)cc3)ncn2C2CCN(Cc3ccon3)CC2)n1 [PF-5006739]
- effect on circadian rhythms (circadian rhythms [2]): significantly lengthened circadian rhythms
- glucose tolerance [4]: improve glucose tolerance
- effect on circadian rhythms (circadian rhythms [3]): significantly lengthened circadian rhythms

Structure (SMILES): Cc1cc(-c2c(-c3ccc(F)cn3)nn3c2C[C@@]2(C3)CC2(F)F)c2c(Cl)n[nH]c2n1 (single isomer, unassigned) [Example 262, (*S)-3′-(3-Chloro-6-methyl-1H-pyrazolo[3,4-b]pyridin-4-yl)-2,2-difluoro-2′-(5-fluoropyridin-2-yl)-4′H,6′H-spiro[cyclopropane-1,5′-pyrrolo[1,2-b]pyrazole]]
- IC50 [5]: 5 nM
- IC50 (human CSNK1D): 15 nM

Source: patent publication US20230339970A1, “CASEIN KINASE 1 DELTA MODULATORS” (priority 2020, published 2023)
